Assay results published in US9586950B2 (MERCK SHARP & DOHME CORP., priority 2012, dated 2017).

What was measured:
[1] = molecular target: T1, human orexin-2 receptor (Homo sapiens (Human), UniProt O43614); experiment: radioligand binding assay, hOX2R BIND; conditions: membranes from CHO cells expressing OX2 receptor; read-out: hOX2R BIND hKi
Method: (§1) In a typical experiment the OX1 and OX2 receptor antagonistic activity of the compounds of the present invention was determined in accordance with the following experimental method. For intracellular calcium measurements, Chinese hamster ovary (CHO) cells expressing the rat orexin-1 receptor or the human orexin-2 receptor, are grown in Iscove's modified DMEM containing 2 mM L-glutamine, […], 1% hypoxanthine-thymidine supplement, 100 U/ml penicillin, 100 μg/ml streptomycin and 10% heat-inactivated fetal calf serum (FCS). The cells are seeded at 20,000 cells/well into Becton-Dickinson black 384-well clear bottom sterile plates coated with poly-D-lysine. All reagents were from GIBCO-Invitrogen Corp. The seeded plates are incubated overnight at 37° C. and 5% CO2. Ala-6,12 human orexin-A as the agonist is prepared as a 1 mM stock solution in 1% bovine serum albumin (BSA) and diluted in assay buffer (HBSS containing 20 mM HEPES, 0.1% BSA and 2.5 mM probenecid, pH7.4) for use in the assay at a final concentration of 70 pM. Test compounds are prepared as 10 mM stock solution in DMSO, then diluted in 384-well plates, first in DMSO, then assay buffer. On the day of the assay, cells are washed 3 times with 100 μl assay buffer and then incubated for 60 min (37° C., 5% CO2) in 60 μl assay buffer containing 1 μM Fluo-4AM ester, 0.02% pluronic acid, and 1% BSA. The dye loading solution is then aspirated and cells are washed 3 times with 100 μl assay buffer. 30 μl of that same buffer is left in each well. Within the Fluorescent Imaging Plate Reader (FLIPR, Molecular Devices), test compounds are added to the plate in a volume of 25 μl, incubated for 5 min and finally 25 μl of agonist is added. Fluorescence is measured for each well at 1 second intervals for 5 minutes and the height of each fluorescence peak is compared to the height of the fluorescence peak induced by 70 pM Ala-6,12 orexin-A with buffer in place of antagonist. […] Alternatively, compound potency can be assessed by a radioligand binding assay (described in Bergman et. al. Bioorg. Med. Chem. Lett. 2008, 18, 1425-1430) in which the inhibition constant (Ki) is determined in membranes prepared from CHO cells expressing either the OX1 or OX2 receptor. The intrinsic orexin receptor antagonist activity of a compound which may be used in the present invention may be determined by these assays.

[2] = molecular target: T1, human orexin-2 receptor; experiment: FLIPR Ca2+ Flux Assay, hOX2R FLIPR; format: cell-based; conditions: CHO cells, 70 pM Ala-6,12 human orexin-A agonist
Method: as §1

[3] = molecular target: hOX1R (orexin-1 receptor) (Rattus norvegicus, UniProt P56718); experiment: FLIPR Ca2+ Flux Assay, hOX1R FLIPR; format: cell-based; conditions: CHO cells, 70 pM Ala-6,12 human orexin-A agonist
Method: as §1

T1 sequence (O43614 whole entry): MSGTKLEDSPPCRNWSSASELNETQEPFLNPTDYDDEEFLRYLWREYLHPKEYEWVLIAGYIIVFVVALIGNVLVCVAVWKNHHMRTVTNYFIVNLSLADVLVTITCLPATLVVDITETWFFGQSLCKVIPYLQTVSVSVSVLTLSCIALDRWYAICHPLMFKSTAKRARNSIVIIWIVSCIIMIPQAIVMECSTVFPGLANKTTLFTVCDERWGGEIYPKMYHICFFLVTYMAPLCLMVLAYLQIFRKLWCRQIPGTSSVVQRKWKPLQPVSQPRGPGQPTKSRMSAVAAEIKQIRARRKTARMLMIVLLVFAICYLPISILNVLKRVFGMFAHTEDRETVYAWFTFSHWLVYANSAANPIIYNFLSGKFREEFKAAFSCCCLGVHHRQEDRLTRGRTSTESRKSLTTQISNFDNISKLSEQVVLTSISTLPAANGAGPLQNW

Row | Structure (SMILES) | Ki [1] [nM] | IC50 [2] [nM] | IC50 [3] [nM]
1 | COC(=O)c1c(C#N)ccnc1O[C@@H]1CC[C@@H](C)N(C(=O)c2ccccc2-n2nccn2)C1 [Example 1, Methyl 4-cyano-2-{[(3R,6R)-6-methyl-1-{[2-(2H-1,2,3-triazol-2-yl)phenyl]carbonyl}piperidin-3-yl]oxy}pyridine-3-carboxylate] | 0.46 | 19 | 749
2 | COC(=O)c1c(C#N)ccnc1O[C@@H]1CC[C@@H](C)N(C(=O)c2ccccc2-c2nc(C)no2)C1 [Example 2, Methyl 4-cyano-2-{[(3R,6R)-6-methyl-1-{[2-(3-methyl-1,2,4-oxadiazol-5-yl)phenyl]carbonyl}piperidin-3-yl]oxy}pyridine-3-carboxylate] | 0.37 | 20.8 | 584
3 | COC(=O)c1c(C#N)ccnc1O[C@@H]1CC[C@@H](C)N(C(=O)c2ccc(OC)nc2-n2nccn2)C1 [Example 3, methyl 4-cyano-2-{[(3R,6R)-1-{[6-methoxy-2-(2H-1,2,3-triazol-2-yl)pyridin-3-yl]carbonyl}-6-methylpiperidin-3-yl]oxy}pyridine-3-carboxylate] | 1.9 | 33.8 | –
4 | COC(=O)c1c(C#N)ccnc1O[C@@H]1CC[C@@H](C)N(C(=O)c2cccc(F)c2-n2nccn2)C1 [Example 4, methyl 4-cyano-2-{[(3R,6R)-1-{[3-fluoro-2-(2H-1,2,3-triazol-2-yl)phenyl]carbonyl}-6-methylpiperidin-3-yl]oxy}pyridine-3-carboxylate] | 0.44 | 15.7 | 1020
5 | COC(=O)c1c(C#N)ccnc1O[C@@H]1CC[C@@H](C)N(C(=O)c2ccc(F)cc2-n2nccn2)C1 [Example 5, methyl 4-cyano-2-{[(3R,6R)-1-{[4-fluoro-2-(2H-1,2,3-triazol-2-yl)phenyl]carbonyl}-6-methylpiperidin-3-yl]oxy}pyridine-3-carboxylate] | 0.66 | 21.8 | 1010
6 | COC(=O)c1c(C#N)ccnc1O[C@@H]1CC[C@@H](C)N(C(=O)c2cc(F)ccc2-n2nccn2)C1 [Example 6, methyl 4-cyano-2-{[(3R,6R)-1-{[5-fluoro-2-(2H-1,2,3-triazol-2-yl)phenyl]carbonyl}-6-methylpiperidin-3-yl]oxy}pyridine-3-carboxylate] | 0.42 | 18.2 | 971
7 | COC(=O)c1c(C#N)ccnc1O[C@@H]1CC[C@@H](C)N(C(=O)c2c(F)cccc2-n2nccn2)C1 [Example 7, methyl 4-cyano-2-{[(3R,6R)-1-{[2-fluoro-6-(2H-1,2,3-triazol-2-yl)phenyl]carbonyl}-6-methylpiperidin-3-yl]oxy}pyridine-3-carboxylate] | 0.33 | 24 | 432
8 | COC(=O)c1c(C#N)ccnc1O[C@@H]1CC[C@@H](C)N(C(=O)c2cc(F)ccc2-c2nc(C)no2)C1 [Example 8, methyl 4-cyano-2-{[(3R,6R)-1-{[5-fluoro-2-(3-methyl-1,2,4-oxadiazol-5-yl)phenyl]carbonyl}-6-methylpiperidin-3-yl]oxy}pyridine-3-carboxylate] | 0.44 | 24.9 | 1470
9 | COC(=O)c1c(C#N)ccnc1O[C@@H]1CC[C@@H](C)N(C(=O)c2c(F)cccc2-c2nc(C)no2)C1 [Example 9, methyl 4-cyano-2-{[(3R,6R)-1-{[2-fluoro-6-(3-methyl-1,2,4-oxadiazol-5-yl)phenyl]carbonyl}-6-methylpiperidin-3-yl]oxy}pyridine-3-carboxylate] | 1.1 | 38.8 | –
10 | COC(=O)c1c(C#N)ccnc1O[C@@H]1CC[C@@H](C)N(C(=O)c2ccccc2-c2noc(C)n2)C1 [Example 10, methyl 4-cyano-2-{[(3R,6R)-6-methyl-1-{[2-(5-methyl-1,2,4-oxadiazol-3-yl)phenyl]carbonyl}piperidin-3-yl]oxy}pyridine-3-carboxylate] | 0.53 | 6.5 | 698
11 | COC(=O)c1c(C#N)ccnc1O[C@@H]1CC[C@@H](C)N(C(=O)c2cccc(F)c2-c2noc(C)n2)C1 [Example 11, methyl 4-cyano-2-{[(3R,6R)-1-{[3-fluoro-2-(5-methyl-1,2,4-oxadiazol-3-yl)phenyl]carbonyl}-6-methylpiperidin-3-yl]oxy}pyridine-3-carboxylate] | 0.5 | 16.2 | 956
12 | COC(=O)c1c(C#N)ccnc1O[C@@H]1CC[C@@H](C)N(C(=O)c2ccc(F)cc2-c2noc(C)n2)C1 [Example 12, methyl 4-cyano-2-{[(3R,6R)-1-{[4-fluoro-2-(5-methyl-1,2,4-oxadiazol-3-yl)phenyl]carbonyl}-6-methylpiperidin-3-yl]oxy}pyridine-3-carboxylate] | 1.2 | 30.2 | –
13 | COC(=O)c1c(C#N)ccnc1O[C@@H]1CC[C@@H](C)N(C(=O)c2cc(F)ccc2-c2noc(C)n2)C1 [Example 13, methyl 4-cyano-2-{[(3R,6R)-1-{[5-fluoro-2-(5-methyl-1,2,4-oxadiazol-3-yl)phenyl]carbonyl}-6-methylpiperidin-3-yl]oxy}pyridine-3-carboxylate] | 0.5 | 16.8 | 1030
14 | COC(=O)c1c(C#N)ccnc1O[C@@H]1CC[C@@H](C)N(C(=O)c2c(F)cccc2-c2noc(C)n2)C1 [Example 14, methyl 4-cyano-2-{[(3R,6R)-1-{[2-fluoro-6-(5-methyl-1,2,4-oxadiazol-3-yl)phenyl]carbonyl}-6-methylpiperidin-3-yl]oxy}pyridine-3-carboxylate] | 0.99 | 14.5 | –
15 | COC(=O)c1c(C#N)ccnc1O[C@@H]1CC[C@@H](C)N(C(=O)c2ccc(F)cc2-c2nc(C)no2)C1 [Example 15, methyl 4-cyano-2-{[(3R,6R)-1-{[4-fluoro-2-(3-methyl-1,2,4-oxadiazol-5-yl)phenyl]carbonyl}-6-methylpiperidin-3-yl]oxy}pyridine-3-carboxylate] | 2.2 | 31.8 | 3080
16 | COC(=O)c1c(C#N)ccnc1O[C@@H]1CC[C@@H](C)N(C(=O)c2cccc(C)c2-n2nccn2)C1 [Example 16, methyl 4-cyano-2-{[(3R,6R)-6-methyl-1-{[3-methyl-2-(2H-1,2,3-triazol-2-yl)phenyl]carbonyl}piperidin-3-yl]oxy}pyridine-3-carboxylate] | 0.52 | 27.7 | –
17 | COC(=O)c1c(C#N)ccnc1O[C@@H]1CC[C@@H](C)N(C(=O)c2ccc(C)cc2-n2nccn2)C1 [Example 17, methyl 4-cyano-2-{[(3R,6R)-6-methyl-1-{[4-methyl-2-(2H-1,2,3-triazol-2-yl)phenyl]carbonyl}piperidin-3-yl]oxy}pyridine-3-carboxylate] | 0.58 | 24.3 | –
18 | COC(=O)c1c(C#N)ccnc1O[C@@H]1CC[C@@H](C)N(C(=O)c2cc(C)ccc2-n2nccn2)C1 [Example 18, methyl 4-cyano-2-{[(3R,6R)-6-methyl-1-{[5-methyl-2-(2H-1,2,3-triazol-2-yl)phenyl]carbonyl}piperidin-3-yl]oxy}pyridine-3-carboxylate] | 0.48 | 22 | 311
19 | COC(=O)c1c(C#N)ccnc1O[C@@H]1CC[C@@H](C)N(C(=O)c2cccc(F)c2-c2ncccn2)C1 [Example 21, methyl 4-cyano-2-({(3R,6R)-1-[(3-fluoro-2-pyrimidin-2-ylphenyl)carbonyl]-6-methylpiperidin-3-yl}oxy)pyridine-3-carboxylate] | 1.2 | 36.3 | –
20 | COC(=O)c1c(C#N)ccnc1O[C@@H]1CC[C@@H](C)N(C(=O)c2c(F)cccc2-c2ncccn2)C1 [Example 24, methyl 4-cyano-2-({(3R,6R)-1-[(2-fluoro-6-pyrimidin-2-ylphenyl)carbonyl]-6-methylpiperidin-3-yl}oxy)pyridine-3-carboxylate] | 0.42 | 32.8 | –
21 | COC(=O)c1c(C#N)ccnc1O[C@@H]1CC[C@@H](C)N(C(=O)c2ccccc2C2CCC2)C1 [Example 26, Methyl 4-cyano-2-(((3R,6R)-1-(2-cyclobutylbenzoyl)-6-methylpiperidin-3-yl)oxy)nicotinate] | 0.26 | 19.3 | –
